Consider one compound from publication PMC9169622 (Proceedings of the National Academy of Sciences of the …, 2022).

Data set [1] can be described thus: Plasma progesterone level after intraperitoneal injection. The data set is classed as in vivo, nude mice.
In data set [2] the target is T1, PAQR7 (Homo sapiens, UniProt Q86WK9).
T1 sequence (Q86WK9 1-346): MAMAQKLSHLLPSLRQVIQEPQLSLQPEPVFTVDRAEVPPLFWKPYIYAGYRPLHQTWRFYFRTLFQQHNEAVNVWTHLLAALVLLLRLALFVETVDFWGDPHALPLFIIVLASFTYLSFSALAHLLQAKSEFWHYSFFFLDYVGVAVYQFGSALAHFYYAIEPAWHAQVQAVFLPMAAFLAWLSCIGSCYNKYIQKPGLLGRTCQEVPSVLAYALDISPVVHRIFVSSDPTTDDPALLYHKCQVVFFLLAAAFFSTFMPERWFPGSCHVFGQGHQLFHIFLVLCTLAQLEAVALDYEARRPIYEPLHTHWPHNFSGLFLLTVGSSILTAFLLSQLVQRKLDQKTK
The data set is described as follows: GloSensor cAMP inhibition assay in HEK293 cells overexpressing PAQR7. The data set is classed as cell-based. The note with it: similar plasma membrane expression levels.

In data set [3] the target is T2, GPR126-β (Homo sapiens, UniProt Q86SQ4).
T2 sequence (Q86SQ4 841-1221 limits assumed): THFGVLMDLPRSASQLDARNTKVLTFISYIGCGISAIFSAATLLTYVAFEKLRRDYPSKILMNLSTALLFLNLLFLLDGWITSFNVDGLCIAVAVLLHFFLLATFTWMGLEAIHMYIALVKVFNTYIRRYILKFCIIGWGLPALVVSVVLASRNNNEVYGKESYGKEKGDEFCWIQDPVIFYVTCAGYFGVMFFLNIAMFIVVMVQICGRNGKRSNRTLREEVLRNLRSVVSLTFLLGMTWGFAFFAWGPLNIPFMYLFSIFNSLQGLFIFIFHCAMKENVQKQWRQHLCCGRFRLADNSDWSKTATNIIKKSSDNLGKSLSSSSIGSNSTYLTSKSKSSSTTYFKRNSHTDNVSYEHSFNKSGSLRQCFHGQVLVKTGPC
The data set is described as follows: GloSensor cAMP inhibition assay, GPR126-β construct. In kind it is cell-based.

The target of data set [4] is T3, PAQR8 (Homo sapiens, UniProt Q8TEZ7).
T3 sequence (Q8TEZ7 1-354): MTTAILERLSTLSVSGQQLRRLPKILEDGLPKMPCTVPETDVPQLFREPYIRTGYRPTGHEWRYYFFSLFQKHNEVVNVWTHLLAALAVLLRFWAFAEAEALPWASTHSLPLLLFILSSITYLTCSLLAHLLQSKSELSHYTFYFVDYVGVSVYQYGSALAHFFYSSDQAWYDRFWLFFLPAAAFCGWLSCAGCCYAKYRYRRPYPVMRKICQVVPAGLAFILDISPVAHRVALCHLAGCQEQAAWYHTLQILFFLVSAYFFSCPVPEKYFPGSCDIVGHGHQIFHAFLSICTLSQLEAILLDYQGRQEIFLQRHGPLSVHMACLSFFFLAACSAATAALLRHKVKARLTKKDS
The data set can be described thus: GloSensor cAMP inhibition assay in HEK293 cells overexpressing PAQR8. In kind it is cell-based. The note with it: similar plasma membrane expression levels.

For data set [5], the system named is MDA-MB-231 cells. The data set can be described thus: Colony formation assay. The data set is classed as cell-based, human.
The test system of data set [6] is MDA-MB-231 cells. The data set is described as follows: Nude mouse xenograft model. The note with it: 15 mg/kg i.p. every 3 d. The data set is classed as in vivo, nude mice.
Data set [7] deals with MDA-MB-231 cells. The data set is classed as cell-based, human.

In general, Tmax refers to the time from dosing to the highest level. `CC(=O)[C@H]1CC[C@H]2[C@@H]3CCC4=CC(=O)CC[C@]4(C)[C@H]3CC[C@]12C` [progesterone] displayed a maximum plasma concentration in data set [1] (mice, 15 mg/kg intraperitoneal injection) of 151 nM. Moreover, in data set [1] (mice, 15 mg/kg intraperitoneal injection, from 8 h), the steady plasma level is 4.547 nM. Further, the Tmax in data set [1] (nude, mouse, plasma, ip, 15 mg/kg) is about 1 h. For the same compound, in data set [2], the “activation of PAQR7 stronger than GPR126 (potency)” value was about 100 fold and the “efficacy at PAQR7 compared with GPR126” value is reported as “significant lower efficacy”. Further, the “EC50 for GPR126-β lower than that of full-length GPR126” value in data set [3] is about 10 fold. Besides, in data set [4], the “activation of PAQR8 stronger than GPR126 (potency)” value is listed as about 100 fold and the “efficacy at PAQR8 compared with GPR126” value is “significant lower efficacy”. Moreover, the “colony number and size in Sh-CTRL cells” value in data set [5] (MDA-MB-231 Sh-CTRL, 10 nM) is recorded as “increase”. Also, the “increase in colony number and size after GPR126 knockdown” value in data set [5] (MDA-MB-231 Sh-GPR126, 10 nM) is listed as “largely abolished”. In data set [6], the “rates of mouse weight gain between groups” value is recorded as “not significantly different”. Besides, in data set [6] (32 d), the “tumor growth in the Sh-CTRL group” value is recorded as “significantly enhanced” and the “tumor growth in the Sh-GPR126-1 group” value is on record as “minimal effects”. In data set [6] (after 32 d), the “size and weight of tumors in the Sh-CTRL group” value is “significantly increased”; the “size and weight of tumors in the Sh-GPR126-1 group” value was “no significant effects”. In data set [7], the “growth of GPR126-silenced cells overexpressing wild-type GPR126 or L937A” value is given as “significantly promoted”, the “growth promotion in GPR126-silenced cells overexpressing W1081A or F1085A” value is on record as “significantly attenuated”, the “increase in growth rate of Sh-CTRL cells” value is on record as “approximately twofold” and the “induced cell growth in GPR126-silenced cells overexpressing R1057Q” value is listed as “inhibited”. Also, the “proliferation-promoting effect in GPR126-silenced cells” value in data set [7] is given as “attenuated”.
